From patent US11944622B2 (Annapurna Bio, Inc., priority 2018, dated 2024)

Each compound was assayed against T1, APJ Receptor (Homo sapiens, UniProt P35414) (assay: APJ cAMP assay (DiscoverX enzyme fragment complementation; inhibition of forskolin-stimulated cAMP)). Conditions: CHO-K1 cell line stably expressing the APJ Receptor; EC80 forskolin; 30 minutes at 37° C.; read-out: Potency Range (APJ cAMP EC50).
T1 sequence (P35414 1-380): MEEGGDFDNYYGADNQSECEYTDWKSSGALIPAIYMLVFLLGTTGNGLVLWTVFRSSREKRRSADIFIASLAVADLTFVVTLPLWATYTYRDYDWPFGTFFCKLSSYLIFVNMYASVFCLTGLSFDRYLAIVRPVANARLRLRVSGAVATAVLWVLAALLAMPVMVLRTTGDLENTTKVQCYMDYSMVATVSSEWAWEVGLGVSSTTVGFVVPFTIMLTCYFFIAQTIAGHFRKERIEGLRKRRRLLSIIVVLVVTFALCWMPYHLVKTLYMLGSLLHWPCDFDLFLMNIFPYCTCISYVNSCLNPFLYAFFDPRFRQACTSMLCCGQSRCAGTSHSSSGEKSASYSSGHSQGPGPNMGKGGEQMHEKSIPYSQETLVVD
Assay type: cell-based
Procedure, shortened: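 CHO-K1 cells stably expressing APJ incubated with compound plus EC80 forskolin for 30 min at 37° C. cAMP detected by β-galactosidase enzyme fragment complementation with chemiluminescent read-out; % activity calculated relative to vehicle and maximal controls.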

Compound | EC50 [nM]
COc1cccc(-c2nc3ncc(NS(C)(=O)=O)nc3n2-c2c(OC)cccc2OC)n1 [Example 51, N-(1-(2,6-dimethoxyphenyl)-2-(6-methoxypyridin-2-yl)-1H-imidazo[4,5-b]pyrazin-6-yl)methanesulfonamide] | 1 to 100
CCOc1cccc(-c2nc3ncc(NS(C)(=O)=O)nc3n2C(C)C)n1 [Example 59, N-(2-(6-ethoxypyridin-2-yl)-1-isopropyl-II-1-imidazo[4,5-b]pyrazin-6-yl)methanesulfonamide] | 100 to 10000
CCOc1cccc(-c2nc3nc(COC(F)F)c(NS(C)(=O)=O)nc3n2-c2c(OC)cccc2OC)n1 [Example 141, N-(5-((Difluoromethoxy)methyl)-1-(2,6-dimethoxyphenyl)-2-(6-ethoxypyridin-2-yl)-1H-imidazo[4,5-b]pyrazin-6-yl)methanesulfonamide] | 1 to 100
CCOc1cccc(-c2nc3nnc(NS(=O)(=O)N4CCOCC4)cc3n2-c2c(OC)cccc2OC)n1 [Example 121, N-(7-(2,6-Dimethoxyphenyl)-8-(6-ethoxypyridin-2-yl)-7H-imidazo[4,5-c]pyridazinyl)morpholine-4-sulfonamide] | 1 to 100
CCOc1cccc(-c2nc3ncc(NS(=O)(=O)N4CCNCC4)nc3n2-c2c(OC)cccc2OC)n1 [Example 74, N-(1-(2,6-Dimethoxyphenyl)-2-(6-ethoxypyridin-2-yl)-1H-imidazo[4,5-b]pyrazin-6-yl)piperazine-1-sulfonamide] | 1 to 100
CCOc1cccc(-c2nc3nc(Cl)c(NS(=O)(=O)Cc4ccc(C)cc4F)nc3n2-c2c(OC)cccc2OC)n1 [Example 100, N-(5-Chloro-1-(2,6-dimethoxyphenyl)-2-(6-ethoxypyridin-2-yl)-1H-imidazo[4,5-b]pyrazin-6-yl)-1-(2-fluoro-4-methylphenyl)methanesulfonamide] | 1 to 100
CCOc1cccc(-c2nc3ncc(NC(=O)Cc4ccccc4)nc3n2-c2c(OC)cccc2OC)n1 [Example 14, N-(1-(2,6-dimethoxyphenyl)-2-(6-ethoxypyridin-2-yl)-1H-imidazo[4,5-b]pyrazin-6-yl)-2-phenylacetamide] | 1 to 100
CCOc1cccc(-c2nc3ncc(C(=O)NCc4ccccc4)nc3n2-c2c(OC)cccc2OC)n1 [Example 8, N-Benzyl-1-(2,6-dimethoxyphenyl)-2-(6-ethoxypyridin-2-yl)-1H-imidazo[4,5-b]pyrazine-6-carboxamide] | 100 to 10000
CCOc1cccc(-c2nc3ncc(NS(=O)(=O)N4CCCC4)nc3n2-c2c(OC)cccc2OC)n1 [Example 73, N-(1-(2,6-dimethoxyphenyl)-2-(6-ethoxypyridin-2-yl)-1H-imidazo[4,5-b]pyrazin-6-yl)pyrrolidine-1-sulfonamide] | 1 to 100
COc1cccc(OC)c1-n1c(-c2cncc(C)c2)nc2ncc(NS(=O)(=O)C3CC3)nc21 [Example 133, N-(1-(2,6-dimethoxyphenyl)-2-(5-methylpyridin-3-yl)-1H-imidazo[4,5-b]pyrazin-6-yl)cyclopropanesulfonamide] | 100 to 10000
CCOc1cccc(-c2nc3nc(NC(=O)Cc4ccccc4)cnc3n2-c2c(OC)cccc2OC)n1 [Example 17, N-(1-(2,6-dimethoxyphenyl)-2-(6-ethoxypyridin-2-yl)-1H-imidazo[4,5-b]pyrazin-5-yl)-2-phenylacetamide] | 1 to 100
CCOc1cccc(-c2nc3ncc(NS(=O)(=O)Cc4ccccc4)nc3n2-c2c(OC)cccc2OC)n1 [Example 3, N-(1-(2,6-dimethoxyphenyl)-2-(6-ethoxypyridin-2-yl)-1H-imidazo[4,5-b]pyrazin-6-yl)-1-phenylmethanesulfonamide] | 1 to 100
C=Cc1nc2nc(-c3cccc(OCC)n3)n(-c3c(OC)cccc3OC)c2nc1NS(C)(=O)=O [Example 137, N-(1-(2,6-Dimethoxyphenyl)-2-(6-ethoxypyridin-2-yl)-5-vinyl-1H-imidazo[4,5-b]pyrazin-6-yl)methanesulfonamide] | 1 to 100
CCOc1cccc(-c2nc3ncc(C#Cc4ccccc4)nc3n2-c2c(OC)cccc2OC)n1 [Example 6, 1-(2,6-dimethoxyphenyl)-2-(6-ethoxypyridin-2-yl)-6-(phenylethynyl)-1H-imidazo[4,5-b]pyrazine] | 100 to 10000

Continued, values first:

EC50 [nM] | Compound
1 to 100 | COc1cccc(OC)c1-n1c(-c2cccc(OC3CC3)n2)nc2ncc(NS(C)(=O)=O)nc21 [Example 54, N-(2-(6-cyclopropoxypyridin-2-yl)-1-(2,6-dimethoxyphenyl)-1H-imidazo[4,5-b]pyrazin-6-yl)methanesulfonamide]
< 1 | CC#CCS(=O)(=O)Nc1nc2c(nc1Cl)nc(-c1cccc(OCC)n1)n2-c1c(OC)cccc1OC [Example 110, N-(5-Chloro-1-(2,6-dimethoxyphenyl)-2-(6-ethoxypyridin-2-yl)-1H-imidazo[4,5-b]pyrazin-6-yl)but-2-yne-1-sulfonamide]
1 to 100 | CCOc1cccc(-c2nc3ncc(NS(=O)(=O)C4CCOCC4)nc3n2-c2c(OC)cccc2OC)n1 [Example 36, N-(1-(2,6-dimethoxyphenyl)-2-(6-ethoxypyridin-2-yl)-1H-imidazo[4,5-b]pyrazin-6-yl)tetrahydro-2H-pyran-4-sulfonamide]
1 to 100 | CCOc1cccc(-c2nc3nc(Cl)c(NS(=O)(=O)Cc4ncccc4F)nc3n2-c2c(OC)cccc2OC)n1 [Example 94, N-(5-Chloro-1-(2,6-dimethoxyphenyl)-2-(6-ethoxypyridin-2-yl)-1H-imidazo[4,5-b]pyrazin-6-yl)-1-(3-fluoropyridin-2-yl)methanesulfonamide]
1 to 100 | CCOc1cccc(-c2nc3ncc(NCC4CC4)nc3n2-c2c(OC)cccc2OC)n1 [Example 67, N-(cyclopropylmethyl)-1-(2,6-dimethoxyphenyl)-2-(6-ethoxypyridin-2-yl)-1H-imidazo[4,5-b]pyrazin-6-amine]
1 to 100 | CCOc1cccc(-c2nc3ncc(NS(=O)(=O)CC4(O)CC4)nc3n2-c2c(OC)cccc2OC)n1 [Example 61, N-(1-(2,6-dimethoxyphenyl)-2-(6-ethoxypyridin-2-yl)-1H-imidazo[4,5-b]pyrazin-6-yl)-1-(1-hydroxycyclopropyl)methanesulfonamide]
1 to 100 | CC#CCS(=O)(=O)Nc1cnc2nc(-c3cccc(OCC)n3)n(-c3c(OC)cccc3OC)c2n1 [Example 82, N-(1-(2,6-Dimethoxyphenyl)-2-(6-ethoxypyridin-2-yl)-1H-imidazo[4,5-b]pyrazin-6-yl)but-2-yne-1-sulfonamide]
1 to 100 | CCOc1cccc(-c2nc3ncc(NS(=O)(=O)Cc4cnccn4)nc3n2-c2c(OC)cccc2OC)n1 [Example 69, N-(1-(2,6-dimethoxyphenyl)-2-(6-ethoxypyridin-2-yl)-1H-imidazo[4,5-b]pyrazin-6-yl)-1-(pyrazin-2-yl)methanesulfonamide]
1 to 100 | CCOc1cccc(-c2nc3ncc(NS(=O)(=O)N4CCC(O)CC4)nc3n2-c2c(OC)cccc2OC)n1 [Example 42, N-(1-(2,6-dimethoxyphenyl)-2-(6-ethoxypyridin-2-yl)-1H-imidazo[4,5-b]pyrazin-6-yl)-4-hydroxypiperidine-1-sulfonamide]
< 1 | CCOc1cccc(-c2nc3ncc(NS(=O)(=O)C[C@H]4CCN(C)C(=O)C4)nc3n2-c2c(OC)cccc2OC)n1 [Example 71, (S)—N-(1-(2,6-Dimethoxyphenyl)-2-(6-ethoxypyridin-2-yl)-1H-imidazo[4,5-b]pyrazin-6-yl)-1-(1-methyl-2-oxopiperidin-4-yl)methanesulfonamide]
< 1 | CCOc1cccc(-c2nc3ncc(NS(=O)(=O)CCC4CC4)nc3n2-c2c(OC)cccc2OC)n1 [Example 29, 2-cyclopropyl-N-(1-(2,6-dimethoxyphenyl)-2-(6-ethoxypyridin-2-yl)-1H-imidazo[4,5-b]pyrazin-6-yl)ethanesulfonamide]
< 1 | CCOc1cccc(-c2nc3nnc(NS(=O)(=O)Cc4ccc(Cl)cn4)cc3n2-c2c(OC)cccc2OC)n1 [Example 123, 1-(5-Chloropyridin-2-yl)-N-(7-(2,6-dimethoxyphenyl)-8-(6-ethoxypyridin-2-yl)-7H-imidazo[4,5-c]pyridazinyl)methanesulfonamide]
< 1 | CCOc1cccc(-c2nc3nc(Cl)c(NS(=O)(=O)Cc4ccc(C)c(F)c4)nc3n2-c2c(OC)cccc2OC)n1 [Example 107, N-(5-Chloro-1-(2,6-dimethoxyphenyl)-2-(6-ethoxypyridin-2-yl)-1H-imidazo[4,5-b]pyrazin-6-yl)-1-(3-fluoro-4-methylphenyl)methanesulfonamide]
< 1 | CCOc1cccc(-c2nc3nc(NS(=O)(=O)CC4(O)CNC4)cnc3n2-c2c(OC)cccc2OC)n1 [Example 93, N-(1-(2,6-Dimethoxyphenyl)-2-(6-ethoxypyridin-2-yl)-1H-imidazo[4,5-b]pyrazin-5-yl)-1-(3-hydroxyazetidin-3-yl)methanesulfonamide]
< 1 | CCOc1cccc(-c2nc3nnc(NS(=O)(=O)Cc4ncccn4)cc3n2-c2c(OC)cccc2OC)n1 [Example 127, N-(5-(2,6-Dimethoxyphenyl)-6-(6-ethoxypyridin-2-yl)-5H-imidazo[4,5-c]pyridazin-3-yl)-1-(pyrimidin-2-yl)methanesulfonamide]
< 1 | CCOc1cccc(-c2nc3nc(CC4CCC4)c(NS(C)(=O)=O)nc3n2-c2c(OC)cccc2OC)n1 [Example 88]
< 1 | CCOc1cccc(-c2nc3ncc(NS(=O)(=O)N(C)C4CC4)nc3n2-c2c(OC)cccc2OC)n1 [Example 77, N-(1-(2,6-dimethoxyphenyl)-2-(6-ethoxypyridin-2-yl)-1H-imidazo[4,5-b]pyrazin-6-yl)-N′-methyl-N′-cyclopropylsulfamide]
